Data from US20120157464A1, “USE OF AZABICYCLOALKYL DERIVATIVES OR PYRROLIDINE-2-ONE DERIVATIVES FOR THE TREATMENT OR PREVENTION OF ATAXIA” (NOVARTIS AG, priority 2009, published 2012).

What was measured:
[1] = target: T1, human neuronal nAChR α4β2 (Homo sapiens, UniProt P17787+P43681); assay: similar functional assay in a human epithelial cell line stably expressing the human α4β2 subtype; format: cell-based
T1 construct: expressed in transfected cells
Method: (§1) Assay described in: D Feuerbach et al, Neuropharmacology (2005), 48, 215-227. To assess the activity of the compound of the invention on the human neuronal nAChR α4β2, a similar functional assay is carried out using a human epithelial cell line stably expressing the human α4β2 subtype (Michelmore et al., Naunyn-Schmiedeberg's Arch. Pharmacol. (2002) 366, 235),

human α7-nAChR = target: T2, human α7-nAChR (Homo sapiens, UniProt P36544); assay: functional calcium (FLIPR) assay in GH3 cells recombinantly expressing human α7-nAChR; format: cell-based; conditions: for EC50: GH3 cells expressing human α7-nAChR, calcium FLIPR, read-out: α7-nAChR activity Potency EC50
T2 construct: expressed in transfected cells; host or cells: GH3 cells
T2 sequence (P36544 23-502): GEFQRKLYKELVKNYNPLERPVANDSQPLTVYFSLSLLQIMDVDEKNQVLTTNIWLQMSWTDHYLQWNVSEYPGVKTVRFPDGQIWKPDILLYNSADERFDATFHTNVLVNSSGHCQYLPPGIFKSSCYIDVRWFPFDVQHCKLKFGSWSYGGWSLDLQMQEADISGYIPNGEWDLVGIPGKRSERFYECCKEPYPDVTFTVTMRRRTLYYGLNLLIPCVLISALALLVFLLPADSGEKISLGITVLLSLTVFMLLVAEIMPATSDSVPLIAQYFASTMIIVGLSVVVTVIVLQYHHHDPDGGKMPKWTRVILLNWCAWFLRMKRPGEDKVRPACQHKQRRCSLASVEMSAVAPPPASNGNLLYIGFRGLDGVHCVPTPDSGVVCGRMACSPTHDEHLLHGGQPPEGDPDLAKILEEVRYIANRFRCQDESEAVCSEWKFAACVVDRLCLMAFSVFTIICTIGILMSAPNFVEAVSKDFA
Method: Assay. To assess a7-nAChR activity, a functional assay was employed using GH3 cells that recombinantly expressed human α7-nAChR, 5×10^4 cells per well were seeded 72 h prior to the experiment on black 96-well plates (Costar) and incubated at 37° C. in a humidified atmosphere (5% CO2/95% air). On the day of the experiment, medium was removed by flicking the plates and replaced with 100 μl growth medium containing […] Fluo-4, (Molecular Probes) in the presence of 2.5 mM probenecid (Sigma). The cells were incubated at 37° C. in a humidified atmosphere (5% CO2/95% air) for 1 h. Plates were flicked to remove excess of Fluo-4, washed twice with Hepes-buffered salt solution (in mM: NaCl 130, KCl 5.4 CaCl2 2, MgSO4 0.8, NaH2PO4 0.9, glucose 25, Hepes 20, pH 7.4; HBS) and refilled with 100 μl of HBS containing antagonist when appropriate. The incubation in the presence of the antagonist lasted 3-5 minutes. Plates were placed in the cell plate stage of a FLIPR device (fluorescent imaging plate reader, Molecular Devices, Sunnyvale, Calif., USA).
After recording of the baseline (laser: excitation 488 nm at 1 W, CCD camera opening of 0.4 seconds) the agonists (50 μl) were added to the cell plate using the FLIPR 96-tip pipettor while simultaneously recording the fluorescence, Calcium kinetic data were normalized to the maximal fitted response induced by epibatidine, which is a full agonist at α7-nAChR, Four parameter Hill equations were fitted to the concentration-response. Values of Emax (maximal effect in % compared to the epibatidine response) and EC50 (concentration producing half the maximal effect in μM) were derived from this fit.
as §1

[2] = Oral bioavailability and brain penetration in mice; format: in vivo; conditions: 30 μmol/kg p.o.; for concentration at 0.25 h / concentration at 0.5 h / concentration at 1 h / concentration at 2 h / concentration at 4 h / concentration at 8 h: plasma
Method: Assay: Compounds were orally (30 μmol/kg) administered. Male mice (30-35 g, OF1/ICstrain) were sacrificed at indicated time points after oral administration. Trunk-blood was collected in EDTA-containing tubes and the brain was removed and immediately frozen on dry ice. To 100 μl plasma 10 μl internal standard (1.0 μmol of a compound with solubility and ionization properties similar to test compounds) was added and extracted three times with 500 μl dichloromethane. The combined extracts were then dried under a stream of nitrogen and re-dissolved in 100 μl acetonitrile/water (70% acetonitrile). Brains were weighed and homogenized in water (1:5 w/v). Two 100 μl aliquots of each homogenate 4-10 μl of internal standard (same standard as used for the plasma samples) were extracted three times with 500 μl dichlorornethane and further processed as the plasma samples. Samples were separated on Beckmann high-performance liquid chromatography equipment system with an autosampler (Gilson 233XL).
The limit of detection (LOD), defined as the lowest concentration of the extracted standard sample with a signal to noise ratio of ˜3.

patients with FRDA = conditions: two patients with FRDA, varenicline p.o. 0.5 mg/kg per day; cited from earlier work
patients with SCA3/SCA14 = conditions: two patients with SCA3/SCA14, varenicline p.o. 0.5 mg/kg per day; cited from earlier work
[3] = clinical use in humans; cited from earlier work
FRDA = conditions: cited from earlier work
mice = assay: Social Recognition Test in mice; format: in vivo; conditions: oral, familiar partner at 24 h vs time 0
Method: Assay: Social interactions between two experimental animals are influenced by their degree of familiarity: the better they know each other, the less time they spend on mutual scrutiny at each meeting. […] Memory enhancing agents (i.e. oxiracetam) facilitate learning to the extent that the previously met (familiar) partner is still remembered after 24 h, whereas in vehicle treated control animals the memory usually fades after less than 1 hour (Thor and Holloway, 1982) or after 2-3 hours.
Baseline-test: Pairs consisting of one adult and one young mouse were assigned at random to the experimental and control groups. In each pair only the adult mouse was orally treated 1 hour before the trial with either vehicle or the test compound. The duration of active contacts of the adult mouse with the young mouse was manually recorded over a period of 3 min, including the following behavioural, approach-related items: sniffing, nosing, grooming, licking, pawing and playing, anogenital exploration and orientation toward the young mouse; orientation, thereby, was defined as tip of nose of the adult mouse less than approximately 1 cm distant from the young mouse's body. […]

[4] = male, OF1/IC, mouse, brain, po, 30 umol/kg, 0.25 hour, read-out: Ratio Brain/plasma
[5] = male, OF1/IC, mouse, brain, po, 30 umol/kg, 0.5 hour, read-out: Ratio Brain/plasma
[6] = male, OF1/IC, mouse, brain, po, 30 umol/kg, 1 hour, read-out: Ratio Brain/plasma
[7] = male, OF1/IC, mouse, brain, po, 30 umol/kg, 2 hour, read-out: Ratio Brain/plasma
[8] = male, OF1/IC, mouse, brain, po, 30 umol/kg, 4 hour, read-out: Ratio Brain/plasma
[9] = male, OF1/IC, mouse, brain, po, 30 umol/kg, 8 hour, read-out: Ratio Brain/plasma
[10] = male, OF1/IC, mouse, po, 0.25 hour
[11] = male, OF1/IC, mouse, po, 0.5 hour
[12] = male, OF1/IC, mouse, po, 1 hour
[13] = male, OF1/IC, mouse, po, 2 hour
[14] = male, OF1/IC, mouse, po, 4 hour
[15] = male, OF1/IC, mouse, po, 8 hour

T1 sequence (P43681 29-627 limits assumed): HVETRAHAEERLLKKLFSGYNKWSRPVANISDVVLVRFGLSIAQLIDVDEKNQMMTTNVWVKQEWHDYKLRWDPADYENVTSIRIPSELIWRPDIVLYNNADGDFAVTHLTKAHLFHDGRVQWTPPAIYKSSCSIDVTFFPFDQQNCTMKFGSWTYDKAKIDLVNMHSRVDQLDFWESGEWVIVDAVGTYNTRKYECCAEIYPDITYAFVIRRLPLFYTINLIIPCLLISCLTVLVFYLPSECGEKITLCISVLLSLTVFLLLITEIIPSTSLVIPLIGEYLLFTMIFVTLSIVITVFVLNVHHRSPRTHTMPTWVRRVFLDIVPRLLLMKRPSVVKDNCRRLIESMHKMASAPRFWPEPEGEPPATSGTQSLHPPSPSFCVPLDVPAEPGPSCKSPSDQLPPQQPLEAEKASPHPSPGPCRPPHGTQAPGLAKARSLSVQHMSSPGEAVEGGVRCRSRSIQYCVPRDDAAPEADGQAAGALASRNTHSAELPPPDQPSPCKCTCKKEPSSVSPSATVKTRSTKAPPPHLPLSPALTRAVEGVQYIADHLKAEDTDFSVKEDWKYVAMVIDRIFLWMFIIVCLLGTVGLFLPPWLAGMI
T1 sequence (P17787 26-502): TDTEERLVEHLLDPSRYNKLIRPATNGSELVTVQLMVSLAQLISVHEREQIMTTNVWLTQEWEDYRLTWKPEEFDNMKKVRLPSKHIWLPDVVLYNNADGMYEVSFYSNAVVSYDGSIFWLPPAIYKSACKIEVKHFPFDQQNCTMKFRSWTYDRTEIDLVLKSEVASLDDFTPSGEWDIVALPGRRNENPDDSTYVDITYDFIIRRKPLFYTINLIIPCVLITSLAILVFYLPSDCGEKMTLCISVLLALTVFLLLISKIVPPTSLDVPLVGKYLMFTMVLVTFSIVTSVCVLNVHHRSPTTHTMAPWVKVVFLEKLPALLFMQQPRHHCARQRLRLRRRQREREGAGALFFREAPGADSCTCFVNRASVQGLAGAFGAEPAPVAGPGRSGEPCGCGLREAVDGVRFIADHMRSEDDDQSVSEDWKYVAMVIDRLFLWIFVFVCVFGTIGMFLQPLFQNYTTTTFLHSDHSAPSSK

SMILES | EC50 [1] [µM] | IC50 [1] [µM] | EC50 (human α7-nAChR) [µM] | Brain ([2]; 0.25 hour) | Brain ([2]; 0.5 hour) | Brain ([2]; 1 hour) | Brain ([2]; 2 hour) | Brain ([2]; 4 hour) | Brain ([2]; 8 hour) | Kp at 0.25 h [2, 4] | Kp at 0.5 h [2, 5] | Kp at 1 h [2, 6] | Kp at 2 h [2, 7] | Kp at 4 h [2, 8] | Kp at 8 h [2, 9] | concentration at 0.25 h [2, 10] [nM] | concentration at 0.5 h [2, 11] [nM] | concentration at 1 h [2, 12] [nM] | concentration at 2 h [2, 13] [nM] | concentration at 4 h [2, 14] [nM] | also measured
c1cc2cc(-c3cnc(O[C@H]4CCN5CCC[C@@H]4C5)nc3)ccc2[nH]1 [Compound C-1, (4S,5R)-4-[5-(1H-indol-5-yl)-pyrimidin-2-yloxy]-1-aza-bicyclo[3.3.1]nonane] | > 100 | 9.33 | 0.024 | 620 ± 221 pmoles/g ± SD | 1405 ± 539 pmoles/g ± SD | 1458 ± 189 pmoles/g ± SD | 1478 ± 259 pmoles/g ± SD | 842 ± 187 pmoles/g ± SD | 362 ± 62 pmoles/g ± SD | 0.39 | 0.41 | 1.17 | 1.69 | 1.11 | 1.51 | 1600 ± 758 | 3410 ± 956 | 1240 ± 583 | 875 ± 261 | 762 ± 159 | concentration at 8 h [2, 15]: 239 ± 27 nM
c1cnc2cc3c(cc2n1)C1CNCC3C1 [varenicline, 7,8,9,10-tetrahydro-6,10-methano-6H-pyrazino-(2,3-h)(3)-benzazepine] | – | – | – | – | – | – | – | – | – | – | – | – | – | – | – | – | – | – | – | – | ataxia improvements in patients (patients with FRDA): showed improvements; ataxia improvements in patients (patients with SCA3/SCA14): showed improvements; adverse effects reported during clinical use [3]: nausea, sleep disturbance, constipation, vivid dreams, flatulence and vomiting
Cc1c(O)c(=O)ccn1C [deferiprone] | – | – | – | – | – | – | – | – | – | – | – | – | – | – | – | – | – | – | – | – | effects in clinical trials for FRDA (FRDA): showed effects in clinical trials
C[C@H]1[C@H](Oc2ccc(-c3ccc4[nH]ccc4c3)nn2)C2CCN1CC2 [Compound B-13, (2S,3R)-3-[6-(1H-indol-5-yl)-pyridazin-3-yloxy]-2-methyl-1-aza-bicyclo[2.2.2]octane] | > 100 | 4.22 | 0.013 | 1884 ± 291 pmoles/g ± SD | 2960 ± 706 pmoles/g ± SD | 2940 ± 335 pmoles/g ± SD | 1260 ± 172 pmoles/g ± SD | 379 ± 134 pmoles/g ± SD | 93 ± 30 pmoles/g ± SD | 0.86 | 1.31 | 1.89 | 1.07 | 0.88 | 1.17 | 2200 ± 397 | 2260 ± 419 | 1550 ± 523 | 1170 ± 252 | 429 ± 167 | Reduction in time scrutinizing in % ± SEM at 24 h (mice; dose 0.3 mg/kg): 37 ± 7 % ± SEM; Brain ([2]; 24 hour): 13 ± 4 pmoles/g ± SD; concentration at 8 h [2, 15]: 80 ± 23 nM
COC1=C(OC)C(=O)C(CCCCCCCCCCO)=C(C)C1=O [idebenone] | – | – | – | – | – | – | – | – | – | – | – | – | – | – | – | – | – | – | – | – | effects in clinical trials for FRDA (FRDA): showed effects in clinical trials
C[C@H](OC(=O)N[C@@H]1CN2CCC1CC2)c1ccccc1F [Compound A-1, (S)-(1-aza-bicyclo[2.2.2]oct-3-yl)-carbamic acid S-1-(2-fluoro-phenyl)ethylester] | – | 23.4 | – | – | 706.3 ± 153.4 pmoles/g ± SD | 573.7 ± 109.3 pmoles/g ± SD | 191.9 ± 34.9 pmoles/g ± SD | 104.6 ± 39.6 pmoles/g ± SD | – | – | 1.1 | 0.8 | 1.1 | 1.2 | – | – | – | – | – | – | Reduction in time scrutinizing in % ± SEM at 24 h (mice; dose 3 mg/kg): 52 ± 4 % ± SEM; α7-nAChR activity Efficacy compared to epibatidine (100%) (human α7-nAChR; Emax, maximal effect in % compared to the epibatidine response): 83%; Plasma ([2]; 0.5 hour): 634.9 ± 261.3 pmoles/ml ± SD; Plasma ([2]; 1 hour): 684.7 ± 339.6 pmoles/ml ± SD; Plasma ([2]; 2 hour): 168.2 ± 91.3 pmoles/ml ± SD; Plasma ([2]; 4 hour): 85.0 ± 54.3 pmoles/ml ± SD; Brain ([2]; 6 hour): 40.5 ± 12.1 pmoles/g ± SD; Plasma ([2]; 6 hour): 29.5 ± 13.8 pmoles/ml ± SD; Brain ([2]; 24 hour): 9.1 ± 2.7 pmoles/g ± SD; Plasma ([2]; 24 hour): 3.8 ± 0.6 pmoles/ml ± SD; Kp at 6 h ([2]; male, OF1/IC, mouse, brain, po, 30 umol/kg, 6 hour, read-out: Ratio Brain/plasma): 1.4; Kp at 24 h ([2]; male, OF1/IC, mouse, brain, po, 30 umol/kg, 24 hour, read-out: Ratio Brain/plasma): 2.4
